{"source": "patent US20240174634A1", "about": "“Aldehyde Dehydrogenase Inhibitors and Their Therapeutic Use” (priority 2020, published 2024)", "data": [{"target": "T1, ALDH1A3 (Homo sapiens, UniProt P47895)", "T1 sequence (P47895 1-512)": "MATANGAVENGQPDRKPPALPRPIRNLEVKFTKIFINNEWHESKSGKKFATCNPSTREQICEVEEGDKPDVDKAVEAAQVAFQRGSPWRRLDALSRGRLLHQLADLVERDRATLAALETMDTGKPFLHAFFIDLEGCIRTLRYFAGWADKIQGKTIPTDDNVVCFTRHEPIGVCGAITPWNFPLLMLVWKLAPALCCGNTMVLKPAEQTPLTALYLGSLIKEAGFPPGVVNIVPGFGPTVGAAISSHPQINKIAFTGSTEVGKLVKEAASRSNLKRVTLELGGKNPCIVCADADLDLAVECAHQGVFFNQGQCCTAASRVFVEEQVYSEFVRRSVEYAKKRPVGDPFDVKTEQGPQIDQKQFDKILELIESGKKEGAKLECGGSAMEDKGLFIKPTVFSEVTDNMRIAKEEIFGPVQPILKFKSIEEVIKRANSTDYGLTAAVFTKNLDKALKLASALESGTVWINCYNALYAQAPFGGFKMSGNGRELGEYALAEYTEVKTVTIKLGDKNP", "test": "ALDH1A3 cellular assay (ALDEFLUOR) in WM266.4 melanoma cells", "assay_type": "cell-based", "conditions": "WM266.4 cells; 60 min incubation; percentage of ALDH-positive cells", "source_text": "Materials: WM266.4 cells were procured from ATCC. (WM266-4 is a metastatic human melanoma cell line.) The ALDEFLUOR™ Assay kit (cat. no. 01700) and Aldefluor buffer (cat. no. 01702) were procured from StemCell Technologies. Dulbecco's Modified Eagle Medium (DMEM), FluoroBrite DMEM, Glutamax and Hoechst 33342 were purchased from ThermoFisher. Verapamil was obtained from Fluorochem. FBS was obtained from Sigma. Echo Qualified 384-well low-dead-volume microplate and Echo Qualified 384-well polypropylene microplate were purchased from Labcyte, and the Microclear black sterile polystyrene microplate from Greiner Bio-One.\nMethod: Intracellular inhibition of ALDH1A3 was assessed using the ALDEFLUOR™ Assay kit. The activated ALDEFLUOR™ reagent, BODIPY-aminoacetaldehyde (BAAA), is a fluorescent non-toxic substrate for ALDH enzymes, which freely diffuses into intact and viable cells. In the presence of ALDH enzyme activity, BAAA is converted into BODIPY-aminoacetate (BAA), which is retained inside the cells. The amount of fluorescent reaction product is proportional to the ALDH activity in the cells and is measured using an imaging cytometer. Active efflux of the reaction product is inhibited by an efflux inhibitor (Verapamil) in the ALDEFLUOR™ Assay Buffer.\nA frozen vial of cells was recovered into a T225 flask containing DMEM, high glucose, 10% FBS, 1% glutamax, 1% HEPES. The following day, media was changed and cells were ready for assay from 72 hours after recovery. Cells were transferred into FluoroBrite DMEM (plus 10% FBS, 1% glutamax and 1% HEPES) and diluted to 2.5×10^5 cells/mL. 30 μL of cells were added to each well to give 7500 cells/well and then incubated overnight at 37° C., 5% CO2. After overnight incubation, the media was aspirated and replaced by 20 μL substrate/Hoechst buffer solution. Each plate requires 9 mL of solution comprising, 9 mL ALDEFLUOR assay buffer, 18 μL BAAA substrate (final concentration 500 nM), 4.5 μL Hoechst 33342 (final concentration 5 μg/mL) and 4.5 μL Verapamil (final concentration 50 μM). Compounds were prepared for dosing using the Echo acoustic dispenser by aliquoting into a source plate and dosed directly onto the cell assay plate to give a 10 point dose response per compound ranging from 10 μM to 0.0005 μM final concentration in 3-fold dilution steps. Plates were then incubated for 60 minutes at 37° C., 5% CO2. The buffer was then aspirated and cells washed twice in ice-cold PBS. Plates were kept on ice and 30 μL of cold Aldefluor buffer with 50 μM verapamil dispensed per well. The plates were then imaged using the CellInsight fluorescent microscope. Hoechst fluorescence in the 405 nm channel indicated the nuclear area and this was used to define nuclei and then the surrounding cellular area. Fluorescence in the 488 nm channel of the defined cellular area indicates ALDH1A3 activity. The percentage of cells positive for ALDH activity was plotted versus compound concentration to generate EC50 values using curve fitting parameters defined in Dotmatics software.", "units": {"IC50": "nM"}, "values": [{"smiles": "O=C1CCc2cc(OCCN3CCCC3c3ccccn3)ccc2N1", "note": "(stereo not drawn) [ALDHI-2006, 6-[2-[2-(2-pyridyl)pyrrolidin-1-yl]ethoxy]-3,4-dihydro-1H-quinolin-2-one]", "IC50": "1000 to 10000"}, {"smiles": "O=C1CCc2cc(OCCN3CCC3c3cccc(F)c3)ccc2N1", "note": "(stereo not drawn) [ALDHI-2021, 6-[2-[2-(3-fluorophenyl)azetidin-1-yl]ethoxy]-3,4-dihydro-1H-quinolin-2-one]", "IC50": "1000 to 10000"}, {"smiles": "CN(CCOc1ccc2c(c1)CCC(=O)N2)C(=O)c1cccnc1", "note": "[ALDHI-3013, N-methyl-N-[2-[(2-oxo-3,4-dihydro-1H-quinolin-6-yl)oxy]ethyl]pyridine-3-carboxamide]", "IC50": "1000 to 10000"}, {"smiles": "O=C1CCc2cc(OCCN(CCO)Cc3cccc(F)c3)ccc2N1", "note": "[ALDHI-3002, 6-[2-[(3-fluorophenyl)methyl-(2-hydroxyethyl)amino]ethoxy]-3,4-dihydro-1H-quinolin-2-one]", "IC50": "< 100"}, {"smiles": "O=C1CCc2cc(NC(=O)c3scnc3-c3ccc(F)cc3)ccc2N1", "note": "[ALDHI-1017, 4-(4-fluorophenyl)-N-(2-oxo-1,2,3,4-tetrahydroquinolin-6-yl)thiazole-5-carboxamide]", "IC50": "100 to 1000"}, {"smiles": "Cc1ccc(C2CCCN2CCOc2ccc3c(c2)CCC(=O)N3)cc1", "note": "(stereo not drawn) [ALDHI-2010, 6-[2-[2-(p-tolyl)pyrrolidin-1-yl]ethoxy]-3,4-dihydro-1H-quinolin-2-one]", "IC50": "100 to 1000"}, {"smiles": "Cc1cccc(C2CCCN2CCOc2ccc3c(c2)CCC(=O)N3)c1", "note": "(stereo not drawn) [ALDHI-2011, 6-[2-[2-(m-tolyl)pyrrolidin-1-yl]ethoxy]-3,4-dihydro-1H-quinolin-2-one]", "IC50": "1000 to 10000"}, {"smiles": "O=C1CCc2cc(OCCN3CCC[C@@H]3c3cccc(F)c3)ccc2N1", "note": "[ALDHI-2007, 6-[2-[(2R)-2-(3-fluorophenyl)pyrrolidin-1-yl]ethoxy]-3,4-dihydro-1H-quinolin-2-one]", "IC50": "< 100"}, {"smiles": "O=C1CCc2cc(OCCN3CCCC3c3cccs3)ccc2N1", "note": "(stereo not drawn) [ALDHI-2013, 6-[2-[2-(2-thienyl)pyrrolidin-1-yl]ethoxy]-3,4-dihydro-1H-quinolin-2-one]", "IC50": "100 to 1000"}, {"smiles": "O=C1CCc2cc(OCCN3CCCC3c3ccc(F)cc3)ccc2N1", "note": "(stereo not drawn) [ALDHI-2003, 6-[2-[2-(4-fluorophenyl)pyrrolidin-1-yl]ethoxy]-3,4-dihydro-1H-quinolin-2-one]", "IC50": "1000 to 10000"}, {"smiles": "O=C1CCc2cc(NC(=O)c3ocnc3-c3cccc(F)c3)ccc2N1", "note": "[ALDHI-1019, 4-(3-fluorophenyl)-N-(2-oxo-3,4-dihydro-1H-quinolin-6-yl)oxazole-5-carboxamide]", "IC50": "1000 to 10000"}, {"smiles": "O=C1CCc2cc(OCCN3CCCC3c3ccncc3)ccc2N1", "note": "(stereo not drawn) [ALDHI-2004, 6-[2-[2-(4-pyridyl)pyrrolidin-1-yl]ethoxy]-3,4-dihydro-1H-quinolin-2-one]", "IC50": "1000 to 10000"}, {"smiles": "CCN(CC)CCN(CCOc1ccc2c(c1)CCC(=O)N2)Cc1ccccc1", "note": "[ALDHI-3004, 6-[2-[benzyl-[2-(diethylamino)ethyl]amino]ethoxy]-3,4-dihydro-1H-quinolin-2-one]", "IC50": "< 100"}, {"smiles": "O=C1CCc2cc(OCCN3CCCC3c3cccc(F)c3)ccc2N1", "note": "(stereo not drawn) [ALDHI-2001, 6-[2-[2-(3-fluorophenyl)pyrrolidin-1-yl]ethoxy]-3,4-dihydro-1H-quinolin-2-one]", "IC50": "< 100"}, {"smiles": "O=C1CCc2cc(OCCn3nccc3-c3cccc(F)c3)ccc2N1", "note": "[ALDHI-2023, 6-[2-[5-(3-fluorophenyl)pyrazol-1-yl]ethoxy]-3,4-dihydro-1H-quinolin-2-one]", "IC50": "< 100"}, {"smiles": "CC1CN(CCOc2ccc3c(c2)CCC(=O)N3)C(c2ccccc2)CO1", "note": "(mixture of isomers) [ALDHI-2042, 6-[2-(2-methyl-5-phenyl-morpholin-4-yl)ethoxy]-3,4-dihydro-1H-quinolin-2-one]", "IC50": "100 to 1000"}, {"smiles": "O=C1COc2cc(OCCN3CCCC3c3cccc(F)c3)ccc2N1", "note": "(stereo not drawn) [ALDHI-2009, 7-[2-[2-(3-fluorophenyl)pyrrolidin-1-yl]ethoxy]-4H-1,4-benzoxazin-3-one]", "IC50": "100 to 1000"}, {"smiles": "CCC1Oc2cc(OCCN3CCCC3c3cccc(F)c3)ccc2NC1=O", "note": "(stereo not drawn) [ALDHI-2045, 2-ethyl-7-[2-[2-(3-fluorophenyl)pyrrolidin-1-yl]ethoxy]-4H-1,4-benzoxazin-3-one]", "IC50": "< 100"}, {"smiles": "O=C1CCCc2cc(OCCN3CCCC3c3cccc(F)c3)ccc2N1", "note": "(stereo not drawn) [ALDHI-2020, 7-[2-[2-(3-fluorophenyl)pyrrolidin-1-yl]ethoxy]-1,3,4,5-tetrahydro-1-benzazepin-2-one]", "IC50": "100 to 1000"}, {"smiles": "O=C1CCc2cc(OCCN3CCCC3c3cccc(F)c3)c(F)cc2N1", "note": "(stereo not drawn) [ALDHI-2050, 7-fluoro-6-[2-[2-(3-fluorophenyl)pyrrolidin-1-yl]ethoxy]-3,4-dihydro-1H-quinolin-2-one]", "IC50": "100 to 1000"}, {"smiles": "O=C1CCc2cc(NC(=O)c3scnc3-c3ccccc3F)ccc2N1", "note": "[ALDHI-1021, 4-(2-fluorophenyl)-N-(2-oxo-3,4-dihydro-1H-quinolin-6-yl)thiazole-5-carboxamide]", "IC50": "< 100"}, {"smiles": "O=C1CCc2cc(NC(=O)c3scnc3-c3cccs3)ccc2N1", "note": "[ALDHI-1023, N-(2-oxo-3,4-dihydro-1H-quinolin-6-yl)-4-(2-thienyl)thiazole-5-carboxamide]", "IC50": "< 100"}, {"smiles": "CN(CCOc1ccc2c(c1)CCC(=O)N2)Cc1cccc(F)c1", "note": "[ALDHI-3001, 6-[2-[(3-fluorophenyl)methyl-methyl-amino]ethoxy]-3,4-dihydro-1H-quinolin-2-one]", "IC50": "100 to 1000"}, {"smiles": "O=C1CSc2cc(OCCN3CCCC3c3ccccn3)ccc2N1", "note": "(stereo not drawn) [ALDHI-2027, 7-[2-[2-(2-pyridyl)pyrrolidin-1-yl]ethoxy]-4H-1,4-benzothiazin-3-one]", "IC50": "1000 to 10000"}, {"smiles": "CC1Oc2cc(OCCN3CCCC3c3cccc(F)c3)ccc2NC1=O", "note": "(stereo not drawn) [ALDHI-2044, 7-[2-[2-(3-fluorophenyl)pyrrolidin-1-yl]ethoxy]-2-methyl-4H-1,4-benzoxazin-3-one]", "IC50": "100 to 1000"}, {"smiles": "O=C1CCc2cc(OCCN3CC(F)(F)CC3c3cccc(F)c3)ccc2N1", "note": "(stereo not drawn) [ALDHI-2053, 6-[2-[4,4-difluoro-2-(3-fluorophenyl)pyrrolidin-1-yl]ethoxy]-3,4-dihydro-1H-quinolin-2-one]", "IC50": "< 100"}, {"smiles": "C[C@H](c1ccccc1)N(CCO)CCOc1ccc2c(c1)CCC(=O)N2", "note": "[ALDHI-3006, 6-[2-[2-hydroxyethyl-[(1R)-1-phenylethyl]amino]ethoxy]-3,4-dihydro-1H-quinolin-2-one]", "IC50": "100 to 1000"}, {"smiles": "O=C1CCc2cc(OCCN3CCCC3c3ccc(F)c(F)c3)ccc2N1", "note": "(stereo not drawn) [ALDHI-2039, 6-[2-[2-(3,4-difluorophenyl)pyrrolidin-1-yl]ethoxy]-3,4-dihydro-1H-quinolin-2-one]", "IC50": "100 to 1000"}, {"smiles": "Cc1noc(-c2ccccc2C(=O)Nc2ccc3c(c2)CCC(=O)N3)n1", "note": "[ALDHI-1008, 2-(3-methyl-1,2,4-oxadiazol-5-yl)-N-(2-oxo-1,2,3,4-tetrahydroquinolin-6-yl)benzamide]", "IC50": "100 to 1000"}, {"smiles": "O=C1CCc2cc(NC(=O)c3ncsc3-c3ccsc3)ccc2N1", "note": "[ALDHI-1011, N-(2-oxo-3,4-dihydro-1H-quinolin-6-yl)-5-(3-thienyl)thiazole-4-carboxamide]", "IC50": "1000 to 10000"}, {"smiles": "O=C1CCc2cc(NC(=O)c3scnc3-c3cccc(F)c3)ccc2N1", "note": "[ALDHI-1003, 4-(3-fluorophenyl)-N-(2-oxo-3,4-dihydro-1H-quinolin-6-yl)thiazole-5-carboxamide]", "IC50": "< 100"}, {"smiles": "Cn1cc(C2CCCN2CCOc2ccc3c(c2)SCC(=O)N3)cn1", "note": "(stereo not drawn) [ALDHI-2026, 7-[2-[2-(1-methylpyrazol-4-yl)pyrrolidin-1-yl]ethoxy]-4H-1,4-benzothiazin-3-one]", "IC50": "1000 to 10000"}, {"smiles": "O=C1CSc2cc(OCCN3CCCC3c3cccnc3)ccc2N1", "note": "(stereo not drawn) [ALDHI-2028, 7-[2-[2-(3-pyridyl)pyrrolidin-1-yl]ethoxy]-4H-1,4-benzothiazin-3-one]", "IC50": "100 to 1000"}]}]}
